Two compounds from patent US11452727B2, “Combination therapy for treating cancer” (Epizyme, Inc., priority 2017, dated 2022) can be followed below.

The structures appear in SMILES notation.

What all share (assay): In vitro combination study with tazemetostat, cell proliferation (Cell Titer Glo)
The subject of one experiment is NCI-H23. The settings on record: 7 days tazemetostat pre-treatment, 6 days co-treatment with second agent.
The test system of the next experiment is A549. The settings on record: 7 days tazemetostat pre-treatment, 6 days co-treatment with second agent.
For a further experiment, the system named is NCI-H1299. The settings on record: 7 days tazemetostat pre-treatment, 6 days co-treatment with second agent.
For a further experiment, the system named is NCI-H1793. As to conditions: 7 days tazemetostat pre-treatment, 6 days co-treatment with second agent.
In the next experiment the test system is NCI-H460. The settings on record: 7 days tazemetostat pre-treatment, 6 days co-treatment with second agent.
Another experiment deals with NCI-H1703. As to conditions: 7 days tazemetostat pre-treatment, 6 days co-treatment with second agent.
A further experiment relates to HCC827. As to conditions: 7 days tazemetostat pre-treatment, 6 days co-treatment with second agent.
The next experiment deals with Calu-3. As to conditions: 7 days tazemetostat pre-treatment, 6 days co-treatment with second agent.
In the next experiment the test system is NCI-H838. As to conditions: 7 days tazemetostat pre-treatment, 6 days co-treatment with second agent.
In another experiment the test system is NCI-H2110. As to conditions: 7 days tazemetostat pre-treatment, 6 days co-treatment with second agent.
In the next experiment the test system is A427. The settings on record: A427; 7 days tazemetostat pre-treatment, 6 days co-treatment with second agent.
The test system of another experiment is NCI-H1573. The settings on record: 7 days tazemetostat pre-treatment, 6 days co-treatment with second agent.
The next experiment relates to NCI-H2122. The settings on record: 7 days tazemetostat pre-treatment, 6 days co-treatment with second agent.
The next experiment concerns NCI-H1993. As to conditions: 7 days tazemetostat pre-treatment, 6 days co-treatment with second agent.
A further experiment relates to Calu-6. As to conditions: 7 days tazemetostat pre-treatment, 6 days co-treatment with second agent.
The test system of a further experiment is NCI-H2030. As to conditions: 7 days tazemetostat pre-treatment, 6 days co-treatment with second agent.
Another experiment relates to NCI-H522. The settings on record: 7 days tazemetostat pre-treatment, 6 days co-treatment with second agent.
A further experiment has as its system NCI-H661. As to conditions: 7 days tazemetostat pre-treatment, 6 days co-treatment with second agent.

Description for A427: (§1) Initial proliferation studies were performed to determine the IC50 of tazemetostat in each cell line. For the screen, tazemetostat was used at concentrations bracketed around the IC50 value. If 50% inhibitory concentration was not reached then tazemetostat was tested starting at 10 μM.
(§2) In order to study the effect of dual combination of tazemetostat and a second agent on cell proliferation, cells in log-linear phase growth rate were pre-treated with various concentrations of tazemetostat or DMSO for 7 days in flasks, plated in 384-well plates in the absence of compounds and co-treated on day 8 with tazemetostat or DMSO and the second agent serially diluted for additional 6 days (as depicted in FIG. 1). On day 15, plates were developed for endpoint analysis using Cell Titer Glo to measure ATP content, which was used as an indicator of cell viability. DMSO concentration was kept constant throughout the assay at 0.15% v/v.
(§3) All cell lines were obtained from American Type Culture Collection (ATCC; Rockville, Md.). […] A427, Calu-3, Calu-6 cell lines were cultured in EMEM+10% Fetal bovine serum (FBS)+1% v/v Penicillin/Streptomycin (P/S).
Description for A549: as §1, §2
Description for Calu-3: as §1, §2
(§4) NCI-H1573 was cultured in DMEM: F12 Medium containing the following components: 0.02 mg/ml insulin, 0.01 mg/ml transferrin, 25 nM sodium selenite, 50 nM Hydrocortisone, 1 ng/ml Epidermal Growth Factor, 0.01 mM ethanolamine, 0.01 mM phosphorylethanolamine, 100 pM triiodothyronine, 0.5% (w/v) bovine serum albumin, 0.5 mM sodium pyruvate, 4.5 mM L-glutamine and 1% v/v Pen/Strep.
Description for HCC827: as §1, §2, §4
Description for NCI-H1299: as §1, §2
Description for NCI-H1573: as §1, §2, §4
Description for NCI-H1703: as §1, §2
Description for NCI-H1793: as §1, §2, §4
Description for NCI-H2030: as §1, §2
Description for NCI-H2122: as §1, §2, §3
Description for NCI-H23: as §1, §2, §3
Description for NCI-H460: as §1, §2, §3
Description for NCI-H661: as §1, §2, §3
Description for NCI-H838: as §1, §2, §4

`CN(C)C(=O)c1cc2cnc(Nc3ccc(N4CCNCC4)cn3)nc2n1C1CCCC1` [Ribociclib, ribociclib]: the “combinatorial effect with tazemetostat (Loewe volume class)” value (from here on “combinatorial effect with tazemetostat”) with NCI-H23 is “No eff”; in the experiment with A549 it was “Anta. (volumes <−1 denoted “antagonism”)”; in the experiment on NCI-H1299, “Anta. (volumes <−1 denoted “antagonism”)”; in the experiment on NCI-H1793, “Syn. (Loewe volumes greater than 1 denoted “synergy”)”; in the experiment with NCI-H460 it was “Add. (A value between −1 and 1 denoted “additivity”)”; with NCI-H1703 it was “Anta. (volumes <−1 denoted “antagonism”)”. The “combinatorial effect with tazemetostat” value in the experiment on HCC827 is “Add. (A value between −1 and 1 denoted “additivity”)”; with Calu-3, “Syn. (Loewe volumes greater than 1 denoted “synergy”)”; in the experiment on NCI-H838, “Add. (A value between −1 and 1 denoted “additivity”)”; in the experiment on NCI-H2110, “No eff”; with A427, “Syn. (Loewe volumes greater than 1 denoted “synergy”)”; in the experiment on NCI-H1573, “Syn. (Loewe volumes greater than 1 denoted “synergy”)”. Besides, the “combinatorial effect with tazemetostat” value in the experiment on NCI-H2122 is “Anta. (volumes <−1 denoted “antagonism”)”; in the experiment with NCI-H1993, “Syn. (Loewe volumes greater than 1 denoted “synergy”)”; with Calu-6 it was “No eff”; in the experiment with NCI-H2030, “Syn. (Loewe volumes greater than 1 denoted “synergy”)”; in the experiment on NCI-H522, “No eff”; in the experiment on NCI-H661 it was “Syn. (Loewe volumes greater than 1 denoted “synergy”)”.
Regarding `CCN1CCN(Cc2ccc(Nc3ncc(F)c(-c4cc(F)c5nc(C)n(C(C)C)c5c4)n3)nc2)CC1` [Abemaciclib, abemaciclib], the “combinatorial effect with tazemetostat” value is “Add. (A value between −1 and 1 denoted “additivity”)” in the experiment with NCI-H23; “Add. (A value between −1 and 1 denoted “additivity”)” in the experiment on A549; “Anta. (volumes <−1 denoted “antagonism”)” in the experiment with NCI-H1299; “Syn. (Loewe volumes greater than 1 denoted “synergy”)” with NCI-H1793; “Add. (A value between −1 and 1 denoted “additivity”)” with NCI-H460; “Add. (A value between −1 and 1 denoted “additivity”)” in the experiment with NCI-H1703. The “combinatorial effect with tazemetostat” value is “Add. (A value between −1 and 1 denoted “additivity”)” in the experiment with HCC827; “Add. (A value between −1 and 1 denoted “additivity”)” in the experiment with Calu-3; “Add. (A value between −1 and 1 denoted “additivity”)” with NCI-H838; “Add. (A value between −1 and 1 denoted “additivity”)” with NCI-H2110; “Syn. (Loewe volumes greater than 1 denoted “synergy”)” in the experiment on A427; “Add. (A value between −1 and 1 denoted “additivity”)” in the experiment on NCI-H1573. The “combinatorial effect with tazemetostat” value is “Anta. (volumes <−1 denoted “antagonism”)” in the experiment with NCI-H2122; “Syn. (Loewe volumes greater than 1 denoted “synergy”)” in the experiment with NCI-H1993; “Syn. (Loewe volumes greater than 1 denoted “synergy”)” in the experiment on Calu-6; “Syn. (Loewe volumes greater than 1 denoted “synergy”)” with NCI-H2030; “Add. (A value between −1 and 1 denoted “additivity”)” in the experiment on NCI-H522; “Syn. (Loewe volumes greater than 1 denoted “synergy”)” with NCI-H661.
